Laboratory results from PubChem BioAssay (NCI).
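GI50 = concentration required for 50% inhibition of growth. TGI marks complete inhibition of growth.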

Key:
Assay in all cases: DTP human tumour cell line panel, 384-well format
[1] = tested on: 786-0 renal
[2] = tested on: A498 renal
[3] = tested on: A549 NSCLC
[4] = tested on: ACHN renal
[5] = tested on: BT-549 breast
[6] = tested on: CAKI-1 renal
[7] = tested on: CCRF-CEM leukemia
[8] = tested on: COLO 205 colon
[9] = tested on: DU-145 prostate
[10] = tested on: EKVX NSCLC
[11] = tested on: HCC-2998 colon
[12] = tested on: HCT-116 colon
[13] = tested on: HCT-15 colon
[14] = tested on: HL-60(TB) leukemia
[15] = tested on: HOP-62 NSCLC
[16] = tested on: HOP-92 NSCLC
[17] = tested on: HS 578T breast
[18] = tested on: HT29 colon
[19] = tested on: IGROV1 ovarian
[20] = tested on: K-562 leukemia
[21] = tested on: KM12 colon
[22] = tested on: LOX IMVI melanoma
[23] = tested on: M14 melanoma
[24] = tested on: MALME-3M melanoma
[25] = tested on: MCF7 breast
[26] = tested on: MDA-MB-231 breast
[27] = tested on: MDA-MB-435 melanoma
[28] = tested on: MDA-MB-468 breast
[29] = tested on: MOLT-4 leukemia
[30] = tested on: NCI-H226 lung
[31] = tested on: NCI-H23 lung
[32] = tested on: NCI-H322M lung
[33] = tested on: NCI-H460 NSCLC
[34] = tested on: NCI-H522 lung
[35] = tested on: NCI/ADR-RES ovarian
[36] = tested on: OVCAR-3 ovarian
[37] = tested on: OVCAR-4 ovarian
[38] = tested on: OVCAR-8 ovarian
[39] = tested on: PC-3 prostate
[40] = tested on: RPMI-8226 leukemia
[41] = tested on: RXF 393 renal
[42] = tested on: SF-268 CNS
[43] = tested on: SF-295 CNS
[44] = tested on: SF-539 CNS
[45] = tested on: SK-MEL-28 melanoma
[46] = tested on: SK-MEL-5 melanoma
[47] = tested on: SK-OV-3 ovarian
[48] = tested on: SN12C renal
[49] = tested on: SNB-19 CNS
[50] = tested on: SNB-75 CNS
[51] = tested on: SR leukemia
[52] = tested on: SW-620 colon
[53] = tested on: T-47D breast
[54] = tested on: TK-10 renal
[55] = tested on: U251 glioblastoma
[56] = tested on: UACC-257 melanoma
[57] = tested on: UACC-62 melanoma
[58] = tested on: UO-31 renal

Compound: CNCCN(C)Cc1cn[nH]c1-c1ccc(OC2CC(OCCC3CCOCC3)C2)cc1 (configuration not stated)
- GI50 [1]: 41.4 µM
- TGI [1]: > 100 µM
- GI50 [2]: 48.9 µM
- TGI [2]: > 100 µM
- GI50 [3]: 79.6 µM
- TGI [3]: > 100 µM
- GI50 [4]: 70.9 µM
- TGI [4]: > 100 µM
- GI50 [5]: 61.4 µM
- TGI [5]: > 100 µM
- GI50 [6]: 41.2 µM
- TGI [6]: > 100 µM
- GI50 [7]: 53.8 µM
- TGI [7]: > 100 µM
- GI50 [8]: 96.4 µM
- TGI [8]: > 100 µM
- GI50 [9]: > 100 µM
- TGI [9]: > 100 µM
- GI50 [10]: 60.6 µM
- TGI [10]: > 100 µM
- GI50 [11]: 50.7 µM
- TGI [11]: > 100 µM
- GI50 [12]: 36.6 µM
- TGI [12]: > 100 µM
- GI50 [13]: > 100 µM
- TGI [13]: > 100 µM
- GI50 [14]: 3.26 µM
- TGI [14]: 12.4 µM
- GI50 [15]: 58.3 µM
- TGI [15]: > 100 µM
- GI50 [16]: 42.5 µM
- TGI [16]: > 100 µM
- GI50 [17]: > 100 µM
- TGI [17]: > 100 µM
- GI50 [18]: 24.6 µM
- TGI [18]: 71.5 µM
- GI50 [19]: 37.1 µM
- TGI [19]: > 100 µM
- GI50 [20]: 9.91 µM
- TGI [20]: 25 µM
- GI50 [21]: > 100 µM
- TGI [21]: > 100 µM
- GI50 [22]: 32.6 µM
- TGI [22]: > 100 µM
- GI50 [23]: > 100 µM
- TGI [23]: > 100 µM
- GI50 [24]: 13.6 µM
- TGI [24]: 56.2 µM
- GI50 [25]: 51.5 µM
- TGI [25]: > 100 µM
- GI50 [26]: 78.8 µM
- TGI [26]: > 100 µM
- GI50 [27]: > 100 µM
- TGI [27]: > 100 µM
- GI50 [28]: 45.5 µM
- TGI [28]: > 100 µM
- GI50 [29]: 36.8 µM
- TGI [29]: > 100 µM
- GI50 [30]: > 100 µM
- TGI [30]: > 100 µM
- GI50 [31]: 40 µM
- TGI [31]: > 100 µM
- GI50 [32]: > 100 µM
- TGI [32]: > 100 µM
- GI50 [33]: 43.8 µM
- TGI [33]: > 100 µM
- GI50 [34]: > 100 µM
- TGI [34]: > 100 µM
- GI50 [35]: > 100 µM
- TGI [35]: > 100 µM
- GI50 [36]: 24 µM
- TGI [36]: > 100 µM
- GI50 [37]: > 100 µM
- TGI [37]: > 100 µM
- GI50 [38]: > 100 µM
- TGI [38]: > 100 µM
- GI50 [39]: 75.4 µM
- TGI [39]: > 100 µM
- GI50 [40]: 24.5 µM
- TGI [40]: > 100 µM
- GI50 [41]: 69.8 µM
- TGI [41]: > 100 µM
- GI50 [42]: 83.6 µM
- TGI [42]: > 100 µM
- GI50 [43]: 64.5 µM
- TGI [43]: > 100 µM
- GI50 [44]: 94.4 µM
- TGI [44]: > 100 µM
- GI50 [45]: 43 µM
- TGI [45]: > 100 µM
- GI50 [46]: 16.1 µM
- TGI [46]: > 100 µM
- GI50 [47]: > 100 µM
- TGI [47]: > 100 µM
- GI50 [48]: 89.2 µM
- TGI [48]: > 100 µM
- GI50 [49]: > 100 µM
- TGI [49]: > 100 µM
- GI50 [50]: > 100 µM
- TGI [50]: > 100 µM
- GI50 [51]: 7.14 µM
- TGI [51]: 15 µM
- GI50 [52]: > 100 µM
- TGI [52]: > 100 µM
- GI50 [53]: 71.2 µM
- TGI [53]: > 100 µM
- GI50 [54]: 84.5 µM
- TGI [54]: > 100 µM
- GI50 [55]: 51.8 µM
- TGI [55]: > 100 µM
- GI50 [56]: 18.9 µM
- TGI [56]: 43.3 µM
- GI50 [57]: 22 µM
- TGI [57]: 66.6 µM
- GI50 [58]: 80.2 µM
- TGI [58]: > 100 µM

Compound: CS(=O)(=O)N1CCc2c(-c3cnc(N)nc3)nc(N3CCOCC3)nc21
- GI50 [1]: 1.71 µM
- TGI [1]: 17.8 µM
- GI50 [2]: 0.428 µM
- TGI [2]: 2.73 µM
- GI50 [3]: 0.806 µM
- TGI [3]: 16.9 µM
- GI50 [4]: 0.719 µM
- TGI [4]: 15.9 µM
- GI50 [5]: 1.05 µM
- TGI [5]: 5.67 µM
- GI50 [6]: 0.335 µM
- TGI [6]: 3.51 µM
- GI50 [7]: 0.722 µM
- TGI [7]: 30.4 µM
- GI50 [8]: 0.477 µM
- TGI [8]: > 100 µM
- GI50 [9]: 0.661 µM
- TGI [9]: 8.57 µM
- GI50 [10]: 0.411 µM
- TGI [10]: 3.83 µM
- GI50 [11]: 1.42 µM
- TGI [11]: > 100 µM
- GI50 [12]: 1.06 µM
- TGI [12]: > 100 µM
- GI50 [13]: 0.445 µM
- TGI [13]: > 100 µM
- GI50 [14]: 0.192 µM
- TGI [14]: > 100 µM
- GI50 [15]: 1.34 µM
- TGI [15]: > 100 µM
- GI50 [16]: 0.248 µM
- TGI [16]: 2.59 µM
- GI50 [17]: 0.465 µM
- TGI [17]: 3 µM
- GI50 [18]: 0.334 µM
- TGI [18]: > 100 µM
- GI50 [19]: 0.123 µM
- TGI [19]: 0.568 µM
- GI50 [20]: 3.65 µM
- TGI [20]: > 100 µM
- GI50 [21]: 2.23 µM
- TGI [21]: > 100 µM
- GI50 [22]: 1.01 µM
- TGI [22]: 28.4 µM
- GI50 [23]: 0.932 µM
- TGI [23]: > 100 µM
- GI50 [24]: 0.281 µM
- TGI [24]: 2.18 µM
- GI50 [25]: 0.0473 µM
- TGI [25]: > 100 µM
- GI50 [26]: 0.9 µM
- TGI [26]: > 100 µM
- GI50 [27]: 1.49 µM
- TGI [27]: 94.5 µM
- GI50 [28]: 0.391 µM
- TGI [28]: 2.32 µM
- GI50 [29]: 0.252 µM
- TGI [29]: 1.55 µM
- GI50 [30]: 0.38 µM
- TGI [30]: 3.94 µM
- GI50 [31]: 0.826 µM
- TGI [31]: > 100 µM
- GI50 [32]: 0.426 µM
- TGI [32]: 9.38 µM
- GI50 [33]: 0.256 µM
- TGI [33]: 31.3 µM
- GI50 [34]: 0.71 µM
- TGI [34]: > 100 µM
- GI50 [35]: 2.6 µM
- TGI [35]: > 100 µM
- GI50 [36]: 0.752 µM
- TGI [36]: 6.66 µM
- GI50 [37]: 1.65 µM
- TGI [37]: 7.87 µM
- GI50 [38]: 1.01 µM
- TGI [38]: > 100 µM
- GI50 [39]: 0.34 µM
- TGI [39]: 4.45 µM
- GI50 [40]: 0.461 µM
- TGI [40]: 2.47 µM
- GI50 [41]: 1.16 µM
- TGI [41]: 4.97 µM
- GI50 [42]: 1.7 µM
- TGI [42]: > 100 µM
- GI50 [43]: 0.537 µM
- TGI [43]: 2.99 µM
- GI50 [44]: 1.12 µM
- TGI [44]: 14.1 µM
- GI50 [45]: 0.673 µM
- TGI [45]: 8.52 µM
- GI50 [46]: 1.23 µM
- TGI [46]: 7.9 µM
- GI50 [47]: 0.17 µM
- TGI [47]: 1.36 µM
- GI50 [48]: 0.433 µM
- TGI [48]: 5.54 µM
- GI50 [49]: 5.41 µM
- TGI [49]: > 100 µM
- GI50 [50]: 0.391 µM
- TGI [50]: 3.6 µM
- GI50 [51]: 0.116 µM
- TGI [51]: 0.551 µM
- GI50 [52]: 2.64 µM
- TGI [52]: > 100 µM
- GI50 [53]: 0.0317 µM
- TGI [53]: 0.396 µM
- GI50 [54]: 0.421 µM
- TGI [54]: 4.97 µM
- GI50 [55]: 2.64 µM
- TGI [55]: > 100 µM
- GI50 [56]: 2.12 µM
- TGI [56]: > 100 µM
- GI50 [57]: 0.739 µM
- TGI [57]: 4.09 µM
- GI50 [58]: 0.489 µM
- TGI [58]: 7.6 µM
